Data from patent publication US7491844B2, “Therapeutic cyclopentane derivatives” (Allergan, Inc., priority 2006, dated 2009).

Assays:
EP4 receptors = molecular target: T1, EP4 receptors (Homo sapiens, UniProt P35408); assay: Radioligand binding, [3H]PGE2, HEK-293 cells expressing EP4
T1 construct: expressed in transfected cells; host or cells: HEK-293 (plasma membrane fraction)
Procedure: HEK-293 cells stably expressing the human or feline FP receptor, or EP1, EP2, or EP4 receptors were washed with TME buffer, scraped from the bottom of the flasks, and homogenized for 30 sec using a Brinkman PT 10/35 polytron. TME buffer was added to achieve a final 40 ml volume in the centrifuge tubes (the composition of TME is 100 mM TRIS base, 20 mM MgCl2, […]; 10N HCl is added to achieve a pH of 7.4).
The cell homogenate was centrifuged at 19000 r.p.m. for 20 min at 4° C. using a Beckman Ti-60 rotor. The resultant pellet was resuspended in TME buffer to give a final 1 mg/ml protein concentration, as determined by Biorad assay. Radioligand binding competition assays vs. [^3H-]17-phenyl PGF2 ? (5 nM) were performed in a 100 μl volume for 60 min. Binding reactions were started by adding plasma membrane fraction. The reaction was terminated by the addition of 4 ml ice-cold TRIS-HCl buffer and rapid filtration through glass fiber GF/B filters using a Brandel cell harvester. The filters were washed 3 times with ice-cold buffer and oven dried for one hour.
[^3H-] PGE2 (specific activity 180 Ci mmol) was used as the radioligand for EP receptors. [^3H] 17-phenyl PGF2 ? was employed for FP receptor binding studies. […] 17-phenyl PGF2 ? and non-specific binding determined with 10^−5M of unlabeled PGE2, or 17-phenyl PGF2 ? , according to receptor subtype studied.

hDP/Gqs5 = molecular target: T2, hDP/Gqs5 (Homo sapiens, UniProt Q13258); assay: FLIPR calcium signal, HEK-293(EBNA) cells; format: cell-based
T2 construct: expressed in transfected cells; host or cells: HEK-293(EBNA)
T2 sequence (Q13258 1-359): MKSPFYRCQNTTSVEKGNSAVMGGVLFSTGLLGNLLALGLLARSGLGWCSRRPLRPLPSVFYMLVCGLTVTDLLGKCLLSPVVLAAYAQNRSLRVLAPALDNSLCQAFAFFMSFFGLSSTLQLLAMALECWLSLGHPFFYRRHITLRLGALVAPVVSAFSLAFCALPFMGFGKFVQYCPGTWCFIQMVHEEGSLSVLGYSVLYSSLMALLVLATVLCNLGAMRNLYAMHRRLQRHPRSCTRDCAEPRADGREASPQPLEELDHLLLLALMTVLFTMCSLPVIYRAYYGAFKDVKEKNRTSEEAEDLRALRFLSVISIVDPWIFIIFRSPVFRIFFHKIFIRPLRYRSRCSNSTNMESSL
Procedure: (§1) HEK-293(EBNA) cells, stably expressing one type or subtype of recombinant human prostaglandin receptors (prostaglandin receptors expressed: hDP/Gqs5; hEP1; hEP2/Gqs5; hEP3A/Gqi5; hEP4/Gqs5; hFP; hiP; hTP), were cultured in 100 mm culture dishes in high-glucose DMEM medium containing 10% fetal bovine serum, 2 mM l-glutamine, 250 ? g/ml geneticin (G418) and 200 ? g/ml hygromycin B as selection markers, and 100 units/ml penicillin G, 100 ? g/ml streptomycin and 0.25 ? g/ml amphotericin B.
(§2) Cells were seeded at a density of 5×10^4 cells per well in Biocoat® Poly-D-lysine-coated black-wall, clear-bottom 96-well plates (Becton-Dickinson) and allowed to attach overnight in an incubator at 37° C. Cells were then washed two times with HBSS-HEPES buffer (Hanks Balanced Salt Solution without bicarbonate and phenol red, 20 mM HEPES, pH 7.4) using a Denley Cellwash plate washer (Labsystems). After 45 minutes of dye-loading in the dark, using the calcium-sensitive dye Fluo-4 AM at a final concentration of 2 ? M, plates were washed four times with HBSS-HEPES buffer to remove excess dye leaving 100 ? l in each well. Plates were re-equilibrated to 37° C. for a few minutes.
(§3) Cells were excited with an Argon laser at 488 nm, and emission was measured through a 510-570 nm bandwidth emission filter (FLIPR™, Molecular Devices, Sunnyvale, Calif.). Drug solution was added in a 50 ? l volume to each well to give the desired final concentration. The peak increase in fluorescence intensity was recorded for each well. On each plate, four wells each served as negative (HBSS-HEPES buffer) and positive controls (standard agonists: BW245C (hDP); PGE2 (hEP1; hEP2/Gqs5; hEP3A/Gqi5; hEP4/Gqs5); PGF2 ? (hFP); carbacyclin (hIP); U-46619 (hTP), depending on receptor). The peak fluorescence change in each drug-containing well was then expressed relative to the controls.
(§4) Compounds were tested in a high-throughput (HTS) or concentration-response (CoRe) format. In the HTS format, forty-four compounds per plate were examined in duplicates at a concentration of 10^−5 M. To generate concentration-response curves, four compounds per plate were tested in duplicates in a concentration range between 10^−5 and 10^−11 M. The duplicate values were averaged. In either, HTS or CoRe format each compound was tested on at least 3 separate plates using cells from different passages to give an n≧3.

hEP1 = molecular target: T3, hEP1 (Homo sapiens, UniProt P34995); assay: FLIPR calcium signal, HEK-293(EBNA) cells; format: cell-based
T3 construct: expressed in transfected cells; host or cells: HEK-293(EBNA)
T3 sequence (P34995 1-402): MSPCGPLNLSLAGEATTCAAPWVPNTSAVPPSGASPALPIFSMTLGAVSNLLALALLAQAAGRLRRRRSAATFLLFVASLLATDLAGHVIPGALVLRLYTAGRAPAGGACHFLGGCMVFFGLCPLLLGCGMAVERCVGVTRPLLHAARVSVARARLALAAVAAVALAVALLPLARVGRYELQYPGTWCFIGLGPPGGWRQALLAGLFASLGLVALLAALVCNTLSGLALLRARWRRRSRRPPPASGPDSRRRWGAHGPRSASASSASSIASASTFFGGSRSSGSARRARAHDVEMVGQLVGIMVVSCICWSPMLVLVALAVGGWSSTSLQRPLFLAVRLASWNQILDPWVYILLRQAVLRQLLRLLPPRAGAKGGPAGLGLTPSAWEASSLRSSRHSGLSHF
Procedure: as §1, §2, §3, §4

hEP2/Gqs5 = molecular target: T4, hEP2/Gqs5 (Homo sapiens, UniProt P43116); assay: FLIPR calcium signal, HEK-293(EBNA) cells; format: cell-based; conditions: value outside the parentheses; read-out: Ca2+ Signal-EC50 (nM) EP2
T4 construct: expressed in transfected cells; host or cells: HEK-293(EBNA)
Procedure: as §1, §2, §3, §4

hEP3A/Gqi5 = molecular target: T5, hEP3A/Gqi5 (Homo sapiens, UniProt P43115); assay: FLIPR calcium signal, HEK-293(EBNA) cells; format: cell-based; conditions: read-out: Ca2+ Signal-EC50 (nM) EP3
T5 construct: expressed in transfected cells; host or cells: HEK-293(EBNA)
T5 sequence (P43115 1-390): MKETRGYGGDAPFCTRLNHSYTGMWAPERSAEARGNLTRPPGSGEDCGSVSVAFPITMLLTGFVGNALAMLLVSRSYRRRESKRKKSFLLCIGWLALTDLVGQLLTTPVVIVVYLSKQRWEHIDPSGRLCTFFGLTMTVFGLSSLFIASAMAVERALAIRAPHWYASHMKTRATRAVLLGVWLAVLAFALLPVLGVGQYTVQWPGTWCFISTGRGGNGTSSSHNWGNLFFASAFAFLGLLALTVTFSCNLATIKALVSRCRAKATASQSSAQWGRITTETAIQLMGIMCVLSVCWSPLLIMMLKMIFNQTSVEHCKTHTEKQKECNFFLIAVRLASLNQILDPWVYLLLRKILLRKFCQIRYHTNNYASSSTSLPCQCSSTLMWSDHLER
Procedure: as §1, §2, §3, §4

hFP = molecular target: T6, hFP (Homo sapiens, UniProt P43088); assay: FLIPR calcium signal, HEK-293(EBNA) cells; format: cell-based
T6 construct: expressed in transfected cells; host or cells: HEK-293(EBNA)
Procedure: as §1, §2, §3, §4

hIP = molecular target: T7, hIP (Homo sapiens, UniProt P43119); assay: FLIPR calcium signal, HEK-293(EBNA) cells; format: cell-based
T7 construct: expressed in transfected cells; host or cells: HEK-293(EBNA)
Procedure: as §1, §2, §3, §4

hTP = molecular target: T8, hTP (Homo sapiens, UniProt P21731); assay: FLIPR calcium signal, HEK-293(EBNA) cells; format: cell-based
T8 construct: expressed in transfected cells; host or cells: HEK-293(EBNA)
T8 sequence (P21731 1-343): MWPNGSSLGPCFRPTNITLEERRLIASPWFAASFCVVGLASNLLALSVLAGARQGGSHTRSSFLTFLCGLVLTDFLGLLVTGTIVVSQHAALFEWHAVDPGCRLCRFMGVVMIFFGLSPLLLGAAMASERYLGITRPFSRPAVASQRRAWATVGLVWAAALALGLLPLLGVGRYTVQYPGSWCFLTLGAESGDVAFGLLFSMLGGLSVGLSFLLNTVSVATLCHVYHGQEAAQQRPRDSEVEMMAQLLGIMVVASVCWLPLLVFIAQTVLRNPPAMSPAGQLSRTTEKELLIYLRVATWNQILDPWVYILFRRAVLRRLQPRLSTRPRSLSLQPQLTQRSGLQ
Procedure: as §1, §2, §3, §4

EP2 = EP2 (Homo sapiens, UniProt P43116); assay: Competition radioligand binding, [3H]PGE2, HEK 293 cells expressing EP2; set-up: expressed in transfected cells; host or cells: HEK 293 (membranes or whole cells)
Procedure: Competition binding experiments were performed in a medium containing Hank's balanced salt solution, Hepes 20 mM, pH 7.3, membranes (˜60 μg protein) or 2×10^5 cells from HEK 293 cells stably expressing human EP2 receptors, [^3H]PGE2 (10 nM) and various concentrations of test compounds in a total volume of 300 μl. Reaction mixtures were incubated at 23° C. for 60 min, and were filtered over Whatman GF/B filters under vacuum. Filters were washed three times with 5 ml ice-cold buffer containing 50 mM Tris/HCl (pH 7.3). Non-specific binding was estimated in the presence of excess unlabeled PGE2 (10 μM). Binding data fitted to the binding model for a single class of binding sites, using nonlinear regression analysis. IC50 values thus obtained were converted to Ki using the equation of Ki=(IC50/(1+[L]/KD) where [L] represents PGE2 concentration (10 nM) and KD the dissociation constant for [^3H]PGE2 at human EP2 receptors (40 nM). […]
The cell homogenate was centrifuged at 19000 r.p.m. for 20 min at 4° C. using a Beckman Ti-60 rotor. The resultant pellet was resuspended in TME buffer to give a final 1 mg/ml protein concentration, as determined by Biorad assay. […]
[^3H-] […] 17-phenyl PGF2 ? and non-specific binding determined with 10^−5M of unlabeled PGE2, or 17-phenyl PGF2 ? , according to receptor subtype studied.

hEP4/Gqs5 = molecular target: T9, hEP4/Gqs5 (Homo sapiens, UniProt P35408); assay: FLIPR calcium signal, HEK-293(EBNA) cells; format: cell-based; conditions: read-out: Ca2+ Signal-EC50 (nM) EP4
T9 construct: expressed in transfected cells; host or cells: HEK-293(EBNA)
Procedure: as §1, §2, §3, §4

T4 sequence (P43116 whole entry): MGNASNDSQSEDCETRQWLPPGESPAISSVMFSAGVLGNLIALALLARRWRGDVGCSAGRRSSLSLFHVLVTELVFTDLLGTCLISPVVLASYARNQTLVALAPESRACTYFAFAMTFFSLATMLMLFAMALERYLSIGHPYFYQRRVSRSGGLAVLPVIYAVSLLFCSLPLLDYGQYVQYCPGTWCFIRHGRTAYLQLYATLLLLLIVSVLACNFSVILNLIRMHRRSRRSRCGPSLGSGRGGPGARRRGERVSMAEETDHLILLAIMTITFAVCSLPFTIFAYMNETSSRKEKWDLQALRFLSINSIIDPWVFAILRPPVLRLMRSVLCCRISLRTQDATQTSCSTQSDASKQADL
EP2, sequence (P43116 whole entry): as above
T1 sequence (P35408 whole entry): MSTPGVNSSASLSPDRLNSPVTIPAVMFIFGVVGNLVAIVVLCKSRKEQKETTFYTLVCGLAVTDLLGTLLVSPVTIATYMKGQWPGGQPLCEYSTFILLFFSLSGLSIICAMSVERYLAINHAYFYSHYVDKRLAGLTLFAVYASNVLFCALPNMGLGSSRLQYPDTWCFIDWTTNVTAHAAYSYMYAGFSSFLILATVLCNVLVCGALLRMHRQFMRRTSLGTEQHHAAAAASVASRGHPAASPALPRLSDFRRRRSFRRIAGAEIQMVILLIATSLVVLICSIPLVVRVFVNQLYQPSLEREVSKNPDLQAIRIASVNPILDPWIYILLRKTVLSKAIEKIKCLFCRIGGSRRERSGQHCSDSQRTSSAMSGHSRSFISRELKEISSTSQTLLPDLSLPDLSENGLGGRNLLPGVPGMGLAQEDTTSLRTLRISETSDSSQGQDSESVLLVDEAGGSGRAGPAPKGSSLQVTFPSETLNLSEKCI
T7 sequence (P43119 whole entry): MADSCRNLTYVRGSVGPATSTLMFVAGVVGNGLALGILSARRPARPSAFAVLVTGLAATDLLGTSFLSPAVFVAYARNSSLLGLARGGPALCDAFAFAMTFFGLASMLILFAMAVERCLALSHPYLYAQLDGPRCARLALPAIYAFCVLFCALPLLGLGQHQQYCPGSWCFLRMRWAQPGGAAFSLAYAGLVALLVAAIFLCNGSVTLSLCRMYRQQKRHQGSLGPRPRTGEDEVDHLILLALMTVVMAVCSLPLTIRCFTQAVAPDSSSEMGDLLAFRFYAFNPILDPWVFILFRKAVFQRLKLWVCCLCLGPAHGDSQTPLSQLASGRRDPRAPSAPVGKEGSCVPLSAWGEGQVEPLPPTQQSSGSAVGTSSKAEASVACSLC
T9 sequence (P35408 whole entry): as the sequence (P35408 whole entry) above
T6 sequence (P43088 whole entry): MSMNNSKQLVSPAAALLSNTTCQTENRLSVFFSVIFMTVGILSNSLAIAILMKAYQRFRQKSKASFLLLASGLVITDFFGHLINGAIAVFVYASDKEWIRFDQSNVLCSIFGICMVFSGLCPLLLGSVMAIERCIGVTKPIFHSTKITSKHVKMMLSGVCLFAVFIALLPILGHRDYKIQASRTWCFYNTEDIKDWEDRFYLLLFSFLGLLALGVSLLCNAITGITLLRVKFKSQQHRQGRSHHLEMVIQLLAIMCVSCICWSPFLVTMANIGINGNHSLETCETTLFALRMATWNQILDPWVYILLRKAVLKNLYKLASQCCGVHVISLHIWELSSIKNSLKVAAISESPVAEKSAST

Ki (EP4 receptors) [nM] | Ca2+ Signal-EC50 (nM) DP (hDP/Gqs5) | Ca2+ Signal-EC50 (nM) EP1 (hEP1) | EC50 (hEP2/Gqs5) [nM] | EC50 (hEP3A/Gqi5) [nM] | Ca2+ Signal-EC50 (nM) FP (hFP) | Ca2+ Signal-EC50 (nM) IP (hIP) | Ca2+ Signal-EC50 (nM) TP (hTP) | Ki (EP2) [nM] | EC50 (hEP4/Gqs5) [nM] | Structure (SMILES)
1400 | notactive | notactive | 15 | 25 | notactive | notactive | notactive | 25 | – | CCCCCC(O)c1ccc([C@@H]2[C@@H](C/C=C\CCCC(=O)O)[C@H](Cl)C[C@H]2Cl)cc1 (some centres unmarked) [Entry 2]
2360 | – | – | 427 | 449 | – | – | – | 504 | > 10000 | CCCCCC(O)c1ccc([C@@H]2[C@@H](C/C=C\CCCC(=O)O)[C@H](Cl)C[C@@H]2Cl)cc1 (some centres unmarked) [compound 1]
